Data reported in US8691576B2, “Regeneration and mass propagation of Jatropha curcas through somatic embryogenesis” (Joil (S) Pte Ltd., priority 2008, dated 2014).

Experiments:
Assay type in all cases: cell-based
[1] = system: Jatropha curcas calli from zygotic embryo explants; assay: Type II somatic embryo (TIISE) formation after shifting calli to hormone-free DGA medium; conditions: then DGA medium 6 weeks
Description: Yellowish or white calli were observed on the explants from 3rd week if subcultured in the same medium. Extensively tested variables for induction of somatic embryogenesis were media of numerous compositions. Combinations of MS salt, Gamborg B5 salts, MS vitamins, Gamborg B5 vitamins; presence or absence of NH4NO3; amount of KNO3 (1.9-3.8 g/l); organic nitrogen source, e.g., free amino acids, casein hydrolysate; trace amount of hormones, e.g., kinetin (0-1 mg/l), benzyl adenine (0-1 mg/l); choice of carbon sources, e.g., glucose, sucrose and maltose; and activated carbon (5 g/l). In a large number of media, the calli died within 1-2 weeks when shifted into a new medium. […] An example of the medium is DGA medium in which 1 g/l glutamine and 0.5 g/l asparagines was supplemented. A cluster of somatic embryos of various stages emerged around the 10th day after the medium shift to DGA (FIG. 2).
Somatic embryos formed in DGA medium underwent multiplication and maturation simultaneously. We called them Type II Somatic Embryos (TIISE). TIISEs were preferentially formed on explants previously cultured in media containing higher concentration of 2,4-D, for example, 2-5 mg/l during the first induction culture (Table 1).

[2] = system: Jatropha curcas zygotic embryo and endosperm explants; assay: Type I somatic embryo (TISE) formation on solid media with 2,4-D; conditions: for TISE (%) / TISE Count: 0.1 mg/l kinetin, 8 weeks
Description: Developing fruits were surfaced sterilized. The immature zygotic embryos and endosperms (En) were separated from each other using a surgical scalper blade. Zygotic embryos longer than 0.5 cm were further cut at the cotyledon-hypocotyl junction to produce explants of cotyledons only and hypocotyls with the root radicals. Zygotic embryos shorter than 0.5 cm were cultured intact as they are too fragile. We classified these explants as cotyledons (Cot); hypocotyls with root radicals (Rh); intact embryos (Eb) and endosperm (En).
The explants were cultured on a solid medium comprising MS salt, B5 vitamins and various concentrations of 2,4-D ranging from 0.1 to 20 mg/L. Kinetin was added at 0.1 mg/L in some of the treatments. Somatic embryos started to emerge without obvious sign of calli formation around 10th day, which predominantly formed on the edge of the endosperm tissues where the embryo had been detached. The somatic embryos most likely originated from the residual diploid cells of the zygotic embryo tissue attached on the endosperm. […] These somatic embryos developed speedily and predominantly matured as single embryo (FIG. 1). We called them Type I Somatic Embryo (TISE).

[3] = system: Jatropha curcas embryogenic calli; assay: Embryogenic liquid suspension culture; conditions: liquid medium
Description: FIGS. 5A-5D show embryogenic liquid suspension culture. About 50 mg embryogenic calli produced in solid DGA medium were inoculated in 20 ml modified DGA liquid media. Embryos larger than 2 mm were removed before inoculation. Subculture was done every two weeks. Photos were taken after 2 subcultures. FIG. 5A: 20 g/l sucrose, 1 g/l glutamine, 0.5 g/l asparagine, no 2,4-D. FIG. 5B: 20 g/l sucrose, 1 g/l glutamine, 0.5 g/l asparagine, 0.2 g/1 2,4-D. FIG. 5C: 30 g/l sucrose, 1 g/l glutamine, 0.5 g/l asparagine, 0.2 g/1 2,4-D. FIG. 5D: 20 g/l sucrose, 1 g/l glutamine, 0.5 g/l asparagine, 1 g/1 2,4-D. Arrow indicates the non-embryogenic ball-shaped calli. Scale bar represents 1 cm.
Liquid cultures were performed in 65 mm plastic cylinder containers or 250 ml glass conical flasks that were placed in shakers set at 80 rpm, 28° C. constant temperature and 16-8 hours day-light cycles.
Effects 2,4-D and carbon source on establishment of somatic embryogenic liquid suspension culture was investigated. […] At sucrose level ranging from 10-30 g/l, continued culture lead to maturation of the somatic embryo with no new initiation of secondary embryos (FIG. 5A). The somatic embryos thus produced share good synchrony and are excellent materials for re-induction of TIISEs (Refer to Example 13). […] The suspension cultures were stable for months if large embryos were removed. Further, sucrose concentration needs to be reduced below about 20 g/l (compare FIGS. 5B and 5C).

SMILES: O=C(O)COc1ccc(Cl)cc1Cl [2,4-D, 2,4-dichlorophenoxyacetic acid]
- TIISE (%) ([1]; 2,4-D 0.1 mg/L 4 weeks): 11%
- TIISE Count ([1]; 2,4-D 0.1 mg/L 4 weeks, 19 explants): 2
- TIISE (%) ([1]; 2,4-D 0.2 mg/L 4 weeks): 4%
- TIISE Count ([1]; 2,4-D 0.2 mg/L 4 weeks, 28 explants): 1
- TIISE (%) ([1]; 2,4-D 0.5 mg/L 4 weeks): 19%
- TIISE Count ([1]; 2,4-D 0.5 mg/L 4 weeks, 16 explants): 3
- TIISE (%) ([1]; 2,4-D 1 mg/L 4 weeks): 0%
- TIISE Count ([1]; 2,4-D 1 mg/L 4 weeks, 19 explants): 0
- TIISE (%) ([1]; 2,4-D 2 mg/L 4 weeks): 36%
- TIISE Count ([1]; 2,4-D 2 mg/L 4 weeks, 25 explants): 9
- TIISE (%) ([1]; 2,4-D 5 mg/L 4 weeks): 39%
- TIISE Count ([1]; 2,4-D 5 mg/L 4 weeks, 23 explants): 9
- TIISE (%) ([1]; 2,4-D 10 mg/L 4 weeks): 24%
- TIISE Count ([1]; 2,4-D 10 mg/L 4 weeks, 21 explants): 5
- TIISE (%) ([1]; 2,4-D 20 mg/L 4 weeks): 23%
- TIISE Count ([1]; 2,4-D 20 mg/L 4 weeks, 13 explants): 3
- TISE (%) ([2]; 2,4-D 0.1 mg/L): 84%
- TISE Count ([2]; 2,4-D 0.1 mg/L, 19 explants): 16
- TISE (%) ([2]; 2,4-D 0.2 mg/L): 54%
- TISE Count ([2]; 2,4-D 0.2 mg/L, 28 explants): 15
- TISE (%) ([2]; 2,4-D 0.5 mg/L): 50%
- TISE Count ([2]; 2,4-D 0.5 mg/L, 16 explants): 8
- TISE (%) ([2]; 2,4-D 1 mg/L): 42%
- TISE Count ([2]; 2,4-D 1 mg/L, 19 explants): 8
- TISE (%) ([2]; 2,4-D 2 mg/L): 76%
- TISE Count ([2]; 2,4-D 2 mg/L, 25 explants): 19
- TISE (%) ([2]; 2,4-D 5 mg/L): 57%
- TISE Count ([2]; 2,4-D 5 mg/L, 23 explants): 13
- TISE (%) ([2]; 2,4-D 10 mg/L): 43%
- TISE Count ([2]; 2,4-D 10 mg/L, 21 explants): 9
- TISE (%) ([2]; 2,4-D 20 mg/L): 38%
- TISE Count ([2]; 2,4-D 20 mg/L, 13 explants): 5
- TISE formation ([2]; 2,4-D 0.1 to 20 mg/L): appeared to be inhibitory at high levels
- maturation of somatic embryos ([3]; 2,4-D 0.1-0.5 g/l): significantly inhibited maturation of somatic embryos
- calli multiplication and embryogenicity ([3]; 2,4-D higher than 0.5 g/l): calli multiplication and embryogenicity was poor
